Values joined by “and” are separate entries in the source; they are usually repeats but may differ in a detail not shown here. Equal entries are not always repeated. Where two headings read alike, the source gives them in different places.
Experiments:
Format in all cases: cell-based
Ustilago nuda = test: Fungal growth assay, Control of Ustilago nuda (PDB, 96-well, 24° C., photometric, 48 hrs)
Rhizoctonia solani = test: Fungal growth assay, Control of Rhizoctonia solani (PDB, 96-well, 24° C., photometric, 48 hrs)
Septoria tritici = test: Fungal growth assay, Control of Septoria tritici (PDB, 96-well, 24° C., photometric, 72 hrs)
Microdochium nivale = test: Fungal growth assay, Control of Microdochium nivale (PDB, 96-well, 24° C., photometric, 72 hrs)
Pyrenophora graminea = test: Fungal growth assay, Control of Pyrenophora graminea (PDB, 96-well, 24° C., photometric, 72 hrs)
Fusarium graminearum = tested on: Fusarium graminearum
Gäumannomyces graminis = test: Fungal growth assay, Control of Gaumannomyces graminis (PDB, 96-well, 24° C., photometric, 72 hrs)

Cn1cc(C(=O)Nc2ccccc2[C@@H]2C[C@H]2C2CC2)c(C(F)F)n1 (racemic) [Racemic cpd Ia]
Observed control in % (% Cobs) (Ustilago nuda; 0.0001 ppm): 5%
Observed control in % (% Cobs) (Ustilago nuda; 0.0003 ppm): 0%
Observed control in % (% Cobs) (Ustilago nuda; 0.002 ppm): 0%
Observed control in % (% Cobs) (Ustilago nuda; 0.007 ppm): 15%
Observed control in % (% Cobs) (Rhizoctonia solani; 0.0001 ppm): 3%
Observed control in % (% Cobs) (Rhizoctonia solani; 0.0008 ppm): 8%
Observed control in % (% Cobs) (Rhizoctonia solani; 0.0025 ppm): 4%
Observed control in % (% Cobs) (Rhizoctonia solani; 0.007 ppm): 4%
Observed control in % (% Cobs) (Rhizoctonia solani; 0.0074 ppm): 0%
Observed control in % (% Cobs) (Septoria tritici; 0.0001 ppm): 0%
Observed control in % (% Cobs) (Septoria tritici; 0.0003 ppm): 2% and 1%
Observed control in % (% Cobs) (Septoria tritici; 0.007 ppm): 0%
Observed control in % (% Cobs) (Septoria tritici; 0.0074 ppm): 0%
Observed control in % (% Cobs) (Septoria tritici; 0.022 ppm): 0%
Observed control in % (% Cobs) (Septoria tritici; 0.067 ppm): 4%
Observed control in % (% Cobs) (Microdochium nivale; 0.0003 ppm): 0%
Observed control in % (% Cobs) (Microdochium nivale; 0.0008 ppm): 0%
Observed control in % (% Cobs) (Microdochium nivale; 0.002 ppm): 0%
Observed control in % (% Cobs) (Microdochium nivale; 0.0025 ppm): 1% and 0%
Observed control in % (% Cobs) (Microdochium nivale; 0.007 ppm): 2%
Observed control in % (% Cobs) (Microdochium nivale; 0.0074 ppm): 0%
Observed control in % (% Cobs) (Microdochium nivale; 0.067 ppm): 0% and 4% and 2%
Observed control in % (% Cobs) (Pyrenophora graminea; 0.0003 ppm): 1%
Observed control in % (% Cobs) (Pyrenophora graminea; 0.0008 ppm): 6%
Observed control in % (% Cobs) (Pyrenophora graminea; 0.002 ppm): 0%
Observed control in % (% Cobs) (Pyrenophora graminea; 0.0074 ppm): 4%
Observed control in % (% Cobs) (Pyrenophora graminea; 0.022 ppm): 0%
Observed control in % (% Cobs) (Pyrenophora graminea; 0.0667 ppm): 20%
Observed control in % (% Cobs) (Pyrenophora graminea; 0.067 ppm): 1%
Observed control in % (% Cobs) (Pyrenophora graminea; 1.8 ppm): 11% and 1% and 6%
Observed control in % (% Cobs) (Fusarium graminearum; 0.0001 ppm): 0%
Observed control in % (% Cobs) (Fusarium graminearum; 0.0008 ppm): 0%
Observed control in % (% Cobs) (Fusarium graminearum; 0.007 ppm): 0%
Observed control in % (% Cobs) (Fusarium graminearum; 0.0074 ppm): 0%
Observed control in % (% Cobs) (Fusarium graminearum; 0.022 ppm): 0%
Observed control in % (% Cobs) (Fusarium graminearum; 0.0667 ppm): 7%
Observed control in % (% Cobs) (Fusarium graminearum; 0.067 ppm): 4% and 10%
Observed control in % (% Cobs) (Fusarium graminearum; 0.2 ppm): 7%
Observed control in % (% Cobs) (Fusarium graminearum; 0.6 ppm): 12%
Observed control in % (% Cobs) (Fusarium graminearum; 1.8 ppm): 18%
Observed control in % (% Cobs) (Gäumannomyces graminis; 0.0003 ppm): 0%
Observed control in % (% Cobs) (Gäumannomyces graminis; 0.0008 ppm): 0%
Observed control in % (% Cobs) (Gäumannomyces graminis; 0.002 ppm): 2%
Observed control in % (% Cobs) (Gäumannomyces graminis; 0.007 ppm): 0%
Observed control in % (% Cobs) (Gäumannomyces graminis; 0.2 ppm): 0%

c1ccc2[nH]c(-c3cscn3)nc2c1 [Thiabendazole, reference compound]
Observed control in % (% Cobs) (Rhizoctonia solani; 0.0074 ppm): 0%
Observed control in % (% Cobs) (Rhizoctonia solani; 0.023 ppm): 7%
Observed control in % (% Cobs) (Rhizoctonia solani; 0.2 ppm): 12%
Observed control in % (% Cobs) (Rhizoctonia solani; 0.6 ppm): 13%
Observed control in % (% Cobs) (Septoria tritici; 0.0223 ppm): 0%
Observed control in % (% Cobs) (Septoria tritici; 0.067 ppm): 0%
Observed control in % (% Cobs) (Septoria tritici; 0.6 ppm): 3%
Observed control in % (% Cobs) (Septoria tritici; 1.8 ppm): 1%
Observed control in % (% Cobs) (Pyrenophora graminea; 0.0025 ppm): 0%
Observed control in % (% Cobs) (Pyrenophora graminea; 0.0223 ppm): 0%
Observed control in % (% Cobs) (Fusarium graminearum; 0.0025 ppm): 1%
Observed control in % (% Cobs) (Fusarium graminearum; 0.0223 ppm): 0%

CC1COC(Cn2cncn2)(c2ccc(Oc3ccc(Cl)cc3)cc2Cl)O1 (centres unmarked) [Difenoconazole, reference compound]
Observed control in % (% Cobs) (Ustilago nuda; 0.002 ppm): 2%
Observed control in % (% Cobs) (Microdochium nivale; 0.007 ppm): 4%
Observed control in % (% Cobs) (Microdochium nivale; 0.2 ppm): 1%
Observed control in % (% Cobs) (Microdochium nivale; 0.6 ppm): 13%
Observed control in % (% Cobs) (Pyrenophora graminea; 0.007 ppm): 0%
Observed control in % (% Cobs) (Pyrenophora graminea; 0.022 ppm): 15%
Observed control in % (% Cobs) (Pyrenophora graminea; 0.067 ppm): 23%
Observed control in % (% Cobs) (Pyrenophora graminea; 0.2 ppm): 51%

CC(C1CC1)C(O)(Cn1cncn1)c1ccc(Cl)cc1 (centres unmarked) [Cyproconazole, reference compound]
Observed control in % (% Cobs) (Microdochium nivale; 0.2 ppm): 0%
Observed control in % (% Cobs) (Microdochium nivale; 0.6 ppm): 0%
Observed control in % (% Cobs) (Microdochium nivale; 1.8 ppm): 9%
Observed control in % (% Cobs) (Pyrenophora graminea; 0.022 ppm): 4%
Observed control in % (% Cobs) (Pyrenophora graminea; 0.2 ppm): 19%
Observed control in % (% Cobs) (Pyrenophora graminea; 0.6 ppm): 28%
Observed control in % (% Cobs) (Fusarium graminearum; 0.002 ppm): 5%
Observed control in % (% Cobs) (Fusarium graminearum; 0.022 ppm): 1%
Observed control in % (% Cobs) (Fusarium graminearum; 0.2 ppm): 0%

CO/C=C(/C(=O)OC)c1ccccc1Oc1cc(Oc2ccccc2C#N)ncn1 [Azoxystrobin, reference compound]
Observed control in % (% Cobs) (Gäumannomyces graminis; 0.002 ppm): 11%

N#Cc1c[nH]cc1-c1cccc2c1OC(F)(F)O2 [Fludioxonil, reference compound]
Observed control in % (% Cobs) (Ustilago nuda; 0.002 ppm): 0%
Observed control in % (% Cobs) (Ustilago nuda; 0.007 ppm): 0%
Observed control in % (% Cobs) (Ustilago nuda; 0.022 ppm): 21%
Observed control in % (% Cobs) (Rhizoctonia solani; 0.002 ppm): 0%
Observed control in % (% Cobs) (Rhizoctonia solani; 0.007 ppm): 6%
Observed control in % (% Cobs) (Rhizoctonia solani; 0.022 ppm): 0%
Observed control in % (% Cobs) (Rhizoctonia solani; 0.067 ppm): 0%
Observed control in % (% Cobs) (Septoria tritici; 0.002 ppm): 0%
Observed control in % (% Cobs) (Septoria tritici; 0.067 ppm): 9%
Observed control in % (% Cobs) (Microdochium nivale; 0.002 ppm): 0%
Observed control in % (% Cobs) (Microdochium nivale; 0.007 ppm): 0%
Observed control in % (% Cobs) (Microdochium nivale; 0.022 ppm): 0%
Observed control in % (% Cobs) (Microdochium nivale; 0.067 ppm): 3%
Observed control in % (% Cobs) (Pyrenophora graminea; 0.002 ppm): 7%
Observed control in % (% Cobs) (Fusarium graminearum; 0.007 ppm): 1%
Observed control in % (% Cobs) (Fusarium graminearum; 0.022 ppm): 6%
Observed control in % (% Cobs) (Fusarium graminearum; 0.067 ppm): 39%

— patent publication US10405548B2, “Fungicidal compositions” (Syngenta Crop Protection, LLC, priority 2004, dated 2019)
